{
  "source": "patent US20220160872A1",
  "about": "“Drug Adsorbed Highly Porous Activated Carbon for Enhanced Drug Delivery” (THE BOARD OF TRUSTEES OF THE UNIVERSITY OF ILLINOIS, priority 2019, published 2022)",
  "key": {"HSV-1 (McKrae)": {"system": "HSV-1 (McKrae)", "type": "in vivo"}, "HSV-1": {"system": "HSV-1", "assay": "Prophylactic and therapeutic DECON treatment of HCEs with HSV-1 infection in vitro", "type": "cell-based", "settings": "prophylactically added", "description": "Cell monolayer was washed twice with PBS before whole media with required HSV infection was added.\nTo comprehensively test the efficacy of drug release and resulting antiviral activity of DECON particles, a prophylactic and therapeutic model of treatment was used on HCEs followed by HSV-1 infection in vitro.\nFlow cytometry was conducted on the samples at 24 hpi showing the extent of cells infected with HSV-1 GFP (see FIG. 8C). FIG. 8d provides representative immunoblots for samples showing HSV-1 gB protein in comparison with GAPDH for HSV-1 infected HCEs at 24 hpi."}, "HSV-2 (333 strain)": {"system": "HSV-2 (333 strain)", "assay": "Murine model of vaginal HSV-2 infection", "type": "in vivo, BALB/c mice", "description": "Naïve 4-week-old female BALB/c mice were purchased from Jackson Laboratory (Bar Harbor, USA) and housed in the university BRL for a period of one week for acclimatization before they were subcutaneously injected with 2 mg of medroxyprogesterone (Depo-Provera) per mice. On day 5 post injection, mice were intravaginally infected with 1×10^6 PFU HSV-2 (333 strain). Similar to the ocular model of infection, DECON was applied topically (intravaginally) on alternate days while ACV (50 mg/mL in PBS) was administered via an intraperitoneal injection. PBS was applied intravaginally as mock treatment for the control group. Vaginal swabs were collected using a Calgiswab (Calcium Alginate Mini-tip Urethro-Genital Swab, Puritan) dipped in OptiMEM (Gibco, USA). Images of the ano-genital region were taken on day 0 and day 7 post infection using a Carl Zeiss stereoscope at 7.5× magnification.\nExperiments involving animals were performed under a UIC approved protocol ACC 14-091. The mice were monitored for weight loss and disease scores were recorded in a blinded fashion for 14 days. Sick mice were euthanized according to the IUCAC protocol followed by the collection of ocular/vaginal tissue and lymph nodes. Ocular wash and vaginal swabs were used to assess viral titers using a plaque assay.\nWith the success of topical ocular therapy with DECON, it was investigated whether this delivery platform was effective for vaginal HSV-2 infections as well. Naïve Balb/c mice were primed with medroxyprogestrone 5 days prior to intravaginal HSV-2 infection. Starting at day 1 post infection, mice were either treated with topical DECON or systemic ACV (5 mg/kg) by intraperitoneal injections […], DECON was administered intravaginally […]. The genital area was imaged using a stereoscope on days 0 and 7 to visualize the extent of damage done to the site of infection. […] This was observed by the phenotype of infection and analyzed by plaque assays from vaginal swabs. […] In the mock treated group, 60% of mice succumbed to death by day 14 post infection, while 20% of mice treated with systemic ACV and none of DECON treated mice succumbed to death (FIG. 5D)."}},
  "data": [
    {"smiles": "O=c1[nH]c(=O)n([C@H]2C[C@H](O)[C@@H](CO)O2)cc1C(F)(F)F", "note": "[TFT, trifluridine]", "values": [
      {"measurement": "mice succumbed to death", "setting": "HSV-1 (McKrae); by day 15, topical treatment on alternate days", "result": "Up to 20%"},
      {"measurement": "viral replication / infection vs mock treated", "setting": "HSV-1 (McKrae); topical, alternate days, ocular washes", "result": "did not show any significant reduction in viral replication"}
    ]},
    {"smiles": "Nc1nc2c(ncn2COCCO)c(=O)[nH]1", "note": "[ACV, Acyclovir]", "values": [
      {"measurement": "antiviral response", "setting": "HSV-1", "result": "did not elicit a robust antiviral response"},
      {"measurement": "mice succumbed to death", "setting": "HSV-2 (333 strain); by day 14 post infection", "result": 20, "unit": "%"},
      {"measurement": "inflammation of vaginal and anogenital area", "setting": "HSV-2 (333 strain); compared to mock-treated mice", "result": "only slight inflammation"},
      {"measurement": "viral titers, plaque assays from vaginal swabs", "setting": "HSV-2 (333 strain); day 4 and day 7 post infection, DECON intravaginal, ACV 5 mg/kg intraperitoneal", "result": "steady reduction in viral titers"},
      {"measurement": "lymph node size", "setting": "HSV-2 (333 strain); day 14 post infection", "result": "little to no increase in size"}
    ]}
  ]
}
